# Test system: 648629-189-R-J1-PDC spheroids with HUVEC/MSC, viability
# Experiment: Anticancer human tumor 648629-189-R-J1-PDC patient-derived bladder carcinoma cell line growth inhibition [PI3K]
# Conditions: for IC50: curve of first compound; for viability, T/C: stronger effect = lower value
# Source text: Combinatorial screen of targeted agents with the PI3K inhibitors inavolisib, alpelisib, duvelisib, and copanlisib in multi-cell type tumor spheroids
# A high-throughput screen of multi-cell type tumor spheroids was designed to identify active combinations of targeted small molecules and PI3K pathway inhibitors. Complex spheroids include a stromal component modeled by human endothelial cells (HUVEC) and fibroblasts modeled by human mesenchymal stem cells (MSCs). The concentration ranges selected for each drug and investigational agent were based upon clinically achievable concentrations if the clinical Cmax of the agent was known.
# Compounds. The drugs and investigational agents: inavolisib (NSC800729), alpelisib (NSC765974), duvelisib (NSC772469), copanlisib (NSC816437), ipatasertib (NSC767898), afuresertib (NSC778305), talazoparib (NSC767125), sapanisertib (NSC764658), selumetinib (NSC741078), tovorafenib (DAY101, NSC766906), vemurafenib (NSC761431), ravoxertinib (NSC781343), sotorasib (NSC818433), MRTX1133 (NSC 836407), abemaciclib (NSC 768073), palbociclib (NSC758247), venetoclax (NSC 766270), SY5609 (NSC837396), enzalutamide (NSC755605), and darolutamide (NSC825331), were obtained from the National Cancer Institute (NCI) Developmental Therapeutics Program Chemical Repository. The FDA-approved anticancer drug set is available from the NCI Developmental Therapeutics Program. […] The stock solutions were prepared in dimethyl sulfoxide (DMSO, Sigma-Aldrich, St. Louis, MO, cat. D2650) at 800-fold the tested concentration and stored at -70 degrees C prior to their use. All drugs and investigational agents were tested over a range starting from a high concentration at or near the clinical Cmax and decreasing in half-log increments. If the clinical Cmax for an agent had not been determined, the highest concentration tested was 10 microM.
# Cell Culture. All cells were maintained in an incubator at 37 degrees C and 5% CO2 with 95% humidity. The PDC lines were cultured according to standard operating procedures established by the NCI PDMR (https://pdmr.cancer.gov/sops/default.htm). All PDCs were thawed and cultured in Matrigel-coated flasks prepared with a working solution of 1X Ham's F-12 nutrient mix, without supplementation (Invitrogen, Waltham, MA, cat. 11765054), 100 U/mL penicillin-streptomycin (Invitrogen, cat. 15140122), and 2.5% Matrigel (Corning Inc., Corning, NY, cat. 354248) for the first three passages. The 354836-022-R-J1-PDC, 475296-252-R-J1-PDC, and 997726-040-R-J2-PDC lines were cultured in 6A media, which includes advanced DMEM/F-12 (Thermo Fisher Scientific, cat. 12634028), 10 mM HEPES (Thermo Fisher Scientific, cat. 15630080), 1X GlutaMAX supplement (Thermo Fisher Scientific, cat. 35050061), 0.1 mg/mL primocin (InvivoGen, San Diego, CA, cat. ant-pm-2), 10% defined fetal bovine serum, heat inactivated (HyClone Laboratories Inc., Logan, UT, cat. SH30070.03HI), 50% L-WRN conditioned media (ATCC, cat. CRL-3276), 1.25 mM N-Acetyl-L-cysteine (Sigma-Aldrich, cat. A9165), 10 mM nicotinamide (Sigma-Aldrich, cat. N0636), 1X B-27 supplement (Thermo Fisher Scientific, cat. 17504044), 1X N-2 supplement (Thermo Fisher Scientific, cat. 17502048), and 10 microM Y-27632 dihydrochloride (Tocris Bioscience, Bristol, United Kingdom, cat. 1254). The 624824-186-R-J2-PDC line was cultured in 6C/Colon 1B media, which includes all 6A media components plus 50 ng/mL human EGF recombinant protein (Thermo Fisher Scientific, cat. PHG0311). […]
# 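Also: spheroids exposed to agents for seven days before reading.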
# 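For viability, T/C in this document: percent of vehicle control luminescence where 100% = DMSO treated spheroids.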
smiles,measurement,setting,value
Cn1ncc(Cl)c1-c1cc(C(=O)NC(CN)Cc2cccc(F)c2)sc1Cl (configuration not stated) + CC(Nc1ccc2c(c1)OCCn1cc(N3C(=O)OCC3C(F)F)nc1-2)C(N)=O,IC50,second compound 0.00316 µM,> 10000 nM
same,IC50,second compound 0.01 µM,766 nM
same,IC50,second compound 0.0316 µM,> 10000 nM
same,IC50,second compound 0.1 µM,270 nM
same,IC50,second compound 0.316 µM,209 nM
same,IC50,second compound 1 µM,162 nM
same,"viability, T/C","second compound 0.00316 µM, first compound 0.0316 µM",97%
same,"viability, T/C","second compound 0.00316 µM, first compound 0.1 µM",87.4%
same,"viability, T/C","second compound 0.00316 µM, first compound 0.316 µM",50.5%
same,"viability, T/C","second compound 0.00316 µM, first compound 1 µM",30.1%
same,"viability, T/C","second compound 0.00316 µM, first compound 3.16 µM",20.2%
same,"viability, T/C","second compound 0.00316 µM, first compound 10 µM",102%
same,"viability, T/C","second compound 0.01 µM, first compound 0.0316 µM",88.8%
same,"viability, T/C","second compound 0.01 µM, first compound 0.1 µM",91%
same,"viability, T/C","second compound 0.01 µM, first compound 0.316 µM",56.1%
same,"viability, T/C","second compound 0.01 µM, first compound 1 µM",32.6%
same,"viability, T/C","second compound 0.01 µM, first compound 3.16 µM",17.5%
same,"viability, T/C","second compound 0.01 µM, first compound 10 µM",94.3%
same,"viability, T/C","second compound 0.0316 µM, first compound 0.0316 µM",98%
same,"viability, T/C","second compound 0.0316 µM, first compound 0.1 µM",80.4%
same,"viability, T/C","second compound 0.0316 µM, first compound 0.316 µM",55.1%
same,"viability, T/C","second compound 0.0316 µM, first compound 1 µM",30.8%
same,"viability, T/C","second compound 0.0316 µM, first compound 3.16 µM",19.4%
same,"viability, T/C","second compound 0.0316 µM, first compound 10 µM",99.7%
same,"viability, T/C","second compound 0.1 µM, first compound 0.0316 µM",85.3%
same,"viability, T/C","second compound 0.1 µM, first compound 0.1 µM",72.9%
same,"viability, T/C","second compound 0.1 µM, first compound 0.316 µM",47.4%
same,"viability, T/C","second compound 0.1 µM, first compound 1 µM",27.5%
same,"viability, T/C","second compound 0.1 µM, first compound 3.16 µM",14.8%
same,"viability, T/C","second compound 0.1 µM, first compound 10 µM",89%
same,"viability, T/C","second compound 0.316 µM, first compound 0.0316 µM",79.9%
same,"viability, T/C","second compound 0.316 µM, first compound 0.1 µM",61.5%
same,"viability, T/C","second compound 0.316 µM, first compound 0.316 µM",47.5%
same,"viability, T/C","second compound 0.316 µM, first compound 1 µM",24%
same,"viability, T/C","second compound 0.316 µM, first compound 3.16 µM",15.7%
same,"viability, T/C","second compound 0.316 µM, first compound 10 µM",72.2%
same,"viability, T/C","second compound 1 µM, first compound 0.0316 µM",56.2%
same,"viability, T/C","second compound 1 µM, first compound 0.1 µM",62.1%
same,"viability, T/C","second compound 1 µM, first compound 0.316 µM",37.3%
same,"viability, T/C","second compound 1 µM, first compound 1 µM",22.6%
same,"viability, T/C","second compound 1 µM, first compound 3.16 µM",13.2%
same,"viability, T/C","second compound 1 µM, first compound 10 µM",67%
